# Non-standard residues stand in square brackets, D forms with d. Residues, ends and D or L forms follow the SMILES beside them. dDip = N[C@@H](C(=O)O)C(c1ccccc1)c1ccccc1; Dip = N[C@H](C(=O)O)C(c1ccccc1)c1ccccc1; 2Nal = N[C@@H](Cc1ccc2ccccc2c1)C(=O)O; d2Nal = N[C@H](Cc1ccc2ccccc2c1)C(=O)O
# What was measured:
# [1] = system: Methicillin-resistant Staphylococcus aureus MRSA (ATCC BAA-1556); conditions: ATCC BAA-1556
# [2] = system: S. aureus ATCC 29213; conditions: ATCC 29213
# [3] = system: Pseudomonas aeruginosa (ATCC 27883); conditions: ATCC 27883
# [4] = in vitro; conditions: human, fresh human red blood cells (washed), pH 7.4
# [5] = system: Escherichia coli (ATCC 25922); conditions: ATCC 25922
SMILES,MIC MRSA ATCC BAA-1556 [1],MIC S. aureus ATCC 29213 [2],MIC P. aeruginosa ATCC 27883 [3],HC50 at 0.5 h [4],MIC E. coli ATCC 25922 [5]
"N=C(N)NCCC[C@@H]1NC(=O)[C@H](CCCNC(=N)N)NC(=O)[C@@H](Cc2ccc3ccccc3c2)NC(=O)[C@@H](Cc2ccc3ccccc3c2)NC(=O)[C@H](Cc2c[nH]c3ccccc23)NC(=O)[C@@H](CCCNC(=N)N)NC(=O)[C@@H](CCCNC(=N)N)NC1=O [IFX-116, c[Arg-Arg-arg-arg-Trp-naI-naI]] (cyclo(RR[dR][dR]W[d2Nal][d2Nal]))",,,32 µg/mL,480 µg/mL,32 µg/mL
"N=C(N)NCCC[C@@H]1NC(=O)[C@@H](CCCNC(=N)N)NC(=O)[C@H](CCCNC(=N)N)NC(=O)[C@@H](Cc2ccc3ccccc3c2)NC(=O)[C@@H](Cc2ccc3ccccc3c2)NC(=O)[C@@H](Cc2ccc3ccccc3c2)NC(=O)[C@@H](CCCNC(=N)N)NC1=O [IFX-084, c[Arg-arg-Arg-arg-naI-naI-naI]] (cyclo(R[dR]R[dR][d2Nal][d2Nal][d2Nal]))",1.5 µg/mL,3.1 µg/mL,12.5 µg/mL,400 µg/mL,
"N=C(N)NCCC[C@@H]1NC(=O)[C@H](CCCNC(=N)N)NC(=O)[C@@H](CCCNC(=N)N)NC(=O)[C@@H](CCCNC(=N)N)NC(=O)[C@@H](Cc2ccc3ccccc3c2)NC(=O)[C@@H](Cc2ccc3ccccc3c2)NC(=O)[C@H](Cc2c[nH]c3ccccc23)NC1=O [IFX-117, c[arg-arg-Arg-Arg-Trp-naI-naI]] (cyclo([dR][dR]RRW[d2Nal][d2Nal]))",,,32 µg/mL,190 µg/mL,32 µg/mL
"N=C(N)NCCC[C@H]1NC(=O)[C@@H](CCCNC(=N)N)NC(=O)[C@@H](CCCNC(=N)N)NC(=O)[C@@H](Cc2ccc3ccccc3c2)NC(=O)[C@@H](Cc2c[nH]c3ccccc23)NC(=O)[C@@H](Cc2ccc3ccccc3c2)NC(=O)[C@@H](CCCNC(=N)N)NC1=O [IFX-142, c[arg-arg-arg-arg-naI-trp-naI]] (cyclo([dR][dR][dR][dR][d2Nal][dW][d2Nal]))",3.1 µg/mL,,32 µg/mL,285 µg/mL,16 µg/mL
"N=C(N)NCCC[C@@H]1NC(=O)[C@H](CCCNC(=N)N)NC(=O)[C@@H](Cc2ccc3ccccc3c2)NC(=O)[C@@H](Cc2ccc3ccccc3c2)NC(=O)[C@@H](Cc2c[nH]c3ccccc23)NC(=O)[C@@H](CCCNC(=N)N)NC(=O)[C@@H](CCCNC(=N)N)NC1=O [IFX-118, c[Arg-Arg-arg-arg-trp-naI-naI]] (cyclo(RR[dR][dR][dW][d2Nal][d2Nal]))",3.1 µg/mL,,16 µg/mL,210 µg/mL,16 µg/mL
"N=C(N)NCCC[C@@H]1NC(=O)[C@H](Cc2ccc3ccccc3c2)NC(=O)[C@H](Cc2ccc3ccccc3c2)NC(=O)[C@H](Cc2ccc3ccccc3c2)NC(=O)[C@@H](CCCNC(=N)N)NC(=O)[C@H](CCCNC(=N)N)NC(=O)[C@H](CCCNC(=N)N)NC1=O [IFX-077, c[Arg-Arg-Arg-arg-NaI-NaI-NaI]] (cyclo(RRR[dR][2Nal][2Nal][2Nal]))",,,12.5 µg/mL,100 µg/mL,
"N=C(N)NCCC[C@@H]1NC(=O)[C@H](CCCNC(=N)N)NC(=O)[C@H](CCCNC(=N)N)NC(=O)[C@H](CCCNC(=N)N)NC(=O)[C@@H](Cc2ccc3ccccc3c2)NC(=O)[C@H](Cc2ccc3ccccc3c2)NC(=O)[C@H](Cc2ccc3ccccc3c2)NC1=O [IFX-074, c[Arg-Arg-Arg-Arg-NaI-NaI-naI]] (cyclo(RRRR[2Nal][2Nal][d2Nal]))",,,12.5 µg/mL,200 µg/mL,
"N=C(N)NCCC[C@@H]1NC(=O)[C@H](Cc2ccc3ccccc3c2)NC(=O)[C@H](Cc2ccc3ccccc3c2)NC(=O)[C@@H](Cc2c[nH]c3ccccc23)NC(=O)[C@@H](CCCNC(=N)N)NC(=O)[C@@H](CCCNC(=N)N)NC(=O)[C@H](CCCNC(=N)N)NC1=O [IFX-120, c[Arg-Arg-arg-arg-trp-NaI-NaI]] (cyclo(RR[dR][dR][dW][2Nal][2Nal]))",,,32 µg/mL,195 µg/mL,32 µg/mL
"N=C(N)NCCC[C@@H]1NC(=O)[C@H](CCCNC(=N)N)NC(=O)[C@@H](CCCNC(=N)N)NC(=O)[C@@H](CCCNC(=N)N)NC(=O)[C@H](Cc2ccc3ccccc3c2)NC(=O)[C@H](Cc2ccc3ccccc3c2)NC(=O)[C@@H](Cc2c[nH]c3ccccc23)NC1=O [IFX-121, c[arg-arg-Arg-Arg-trp-NaI-NaI]] (cyclo([dR][dR]RR[dW][2Nal][2Nal]))",6.2 µg/mL,,32 µg/mL,425 µg/mL,32 µg/mL
"N=C(N)NCCC[C@@H]1NC(=O)[C@H](CCCNC(=N)N)NC(=O)[C@@H](CCCNC(=N)N)NC(=O)[C@@H](CCCNC(=N)N)NC(=O)[C@@H](Cc2ccc3ccccc3c2)NC(=O)[C@@H](Cc2ccc3ccccc3c2)NC(=O)[C@@H](Cc2c[nH]c3ccccc23)NC1=O [IFX-119, c[arg-arg-Arg-Arg-trp-naI-naI]] (cyclo([dR][dR]RR[dW][d2Nal][d2Nal]))",,,32 µg/mL,200 µg/mL,16 µg/mL

# Continued, values first:
MIC MRSA ATCC BAA-1556 [1],MIC S. aureus ATCC 29213 [2],MIC P. aeruginosa ATCC 27883 [3],HC50 at 0.5 h [4],MIC E. coli ATCC 25922 [5],SMILES
1.5 µg/mL,3.1 µg/mL,12.5 µg/mL,340 µg/mL,,"N=C(N)NCCC[C@@H]1NC(=O)[C@@H](CCCNC(=N)N)NC(=O)[C@H](CCCNC(=N)N)NC(=O)[C@@H](C(c2ccccc2)c2ccccc2)NC(=O)[C@@H](C(c2ccccc2)c2ccccc2)NC(=O)[C@@H](C(c2ccccc2)c2ccccc2)NC(=O)[C@@H](CCCNC(=N)N)NC1=O [IFX-070, c[Arg-arg-Arg-arg-dip-dip-dip]] (cyclo(R[dR]R[dR][dDip][dDip][dDip]))"
,,12.5 µg/mL,280 µg/mL,,"N=C(N)NCCC[C@@H]1NC(=O)[C@@H](CCCNC(=N)N)NC(=O)[C@H](CCCNC(=N)N)NC(=O)[C@@H](CCCNC(=N)N)NC(=O)[C@@H](C(c2ccccc2)c2ccccc2)NC(=O)[C@@H](C(c2ccccc2)c2ccccc2)NC(=O)[C@@H](C(c2ccccc2)c2ccccc2)NC1=O [IFX-068, c[arg-Arg-arg-Arg-dip-dip-dip]] (cyclo([dR]R[dR]R[dDip][dDip][dDip]))"
,,12.5 µg/mL,265 µg/mL,,"N=C(N)NCCC[C@@H]1NC(=O)[C@H](CCCNC(=N)N)NC(=O)[C@H](CCCNC(=N)N)NC(=O)[C@@H](C(c2ccccc2)c2ccccc2)NC(=O)[C@@H](C(c2ccccc2)c2ccccc2)NC(=O)[C@@H](C(c2ccccc2)c2ccccc2)NC(=O)[C@H](CCCNC(=N)N)NC1=O [IFX-072, c[Arg-Arg-Arg-Arg-dip-dip-dip]] (cyclo(RRRR[dDip][dDip][dDip]))"
,,12.5 µg/mL,100 µg/mL,,"N=C(N)NCCC[C@@H]1NC(=O)[C@H](CCCNC(=N)N)NC(=O)[C@H](CCCNC(=N)N)NC(=O)[C@H](Cc2ccc3ccccc3c2)NC(=O)[C@@H](Cc2ccc3ccccc3c2)NC(=O)[C@H](Cc2ccc3ccccc3c2)NC(=O)[C@H](CCCNC(=N)N)NC1=O [IFX-075, c[Arg-Arg-Arg-Arg-NaI-naI-NaI]] (cyclo(RRRR[2Nal][d2Nal][2Nal]))"
,,12.5 µg/mL,200 µg/mL,,"N=C(N)NCCC[C@@H]1NC(=O)[C@H](CCCNC(=N)N)NC(=O)[C@H](CCCNC(=N)N)NC(=O)[C@@H](CCCNC(=N)N)NC(=O)[C@H](Cc2ccc3ccccc3c2)NC(=O)[C@H](Cc2ccc3ccccc3c2)NC(=O)[C@H](Cc2ccc3ccccc3c2)NC1=O [IFX-080, c[arg-Arg-Arg-Arg-NaI-NaI-NaI]] (cyclo([dR]RRR[2Nal][2Nal][2Nal]))"
,,12.5 µg/mL,150 µg/mL,,"N=C(N)NCCC[C@@H]1NC(=O)[C@H](C(c2ccccc2)c2ccccc2)NC(=O)[C@@H](C(c2ccccc2)c2ccccc2)NC(=O)[C@H](C(c2ccccc2)c2ccccc2)NC(=O)[C@@H](CCCNC(=N)N)NC(=O)[C@H](CCCNC(=N)N)NC(=O)[C@@H](CCCNC(=N)N)NC1=O [IFX-071, c[Arg-arg-Arg-arg-Dip-dip-Dip]] (cyclo(R[dR]R[dR][Dip][dDip][Dip]))"
,,6.2 µg/mL,245 µg/mL,,"N=C(N)NCCC[C@H]1NC(=O)[C@H](C(c2ccccc2)c2ccccc2)NC(=O)[C@H](C(c2ccccc2)c2ccccc2)NC(=O)[C@H](C(c2ccccc2)c2ccccc2)NC(=O)[C@@H](CCCNC(=N)N)NC(=O)[C@@H](CCCNC(=N)N)NC(=O)[C@@H](CCCNC(=N)N)NC1=O [IFX-073, c[arg-arg-arg-arg-Dip-Dip-Dip]] (cyclo([dR][dR][dR][dR][Dip][Dip][Dip]))"
,,12.5 µg/mL,150 µg/mL,,"N=C(N)NCCC[C@@H]1NC(=O)[C@@H](CCCNC(=N)N)NC(=O)[C@H](CCCNC(=N)N)NC(=O)[C@@H](CCCNC(=N)N)NC(=O)[C@@H](Cc2ccc3ccccc3c2)NC(=O)[C@@H](Cc2ccc3ccccc3c2)NC(=O)[C@@H](Cc2ccc3ccccc3c2)NC1=O [IFX-082, c[arg-Arg-arg-Arg-naI-naI-naI]] (cyclo([dR]R[dR]R[d2Nal][d2Nal][d2Nal]))"
,,12.5 µg/mL,100 µg/mL,,"N=C(N)NCCC[C@@H]1NC(=O)[C@H](CCCNC(=N)N)NC(=O)[C@H](Cc2ccc3ccccc3c2)NC(=O)[C@H](Cc2ccc3ccccc3c2)NC(=O)[C@@H](Cc2ccc3ccccc3c2)NC(=O)[C@H](CCCNC(=N)N)NC(=O)[C@H](CCCNC(=N)N)NC1=O [IFX-076, c[Arg-Arg-Arg-Arg-naI-NaI-NaI]] (cyclo(RRRR[d2Nal][2Nal][2Nal]))"

# Reference: patent US20220289794A1, “SYNTHETIC ANTIMICROBIAL PEPTIDES” (priority 2019, published 2022)
